Laboratory results taken from ChEMBL document CHEMBL1201862, “PubChem BioAssay data set” (2004).
Activity calls are given as the source filed them.

Key:
[1] = cytotoxicity in MIN6 insulinoma cells, dose response, cytotoxicity control, cell-based, mouse insulinoma (AID 2122); type: functional;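 note: confirmatory high-throughput counterscreen run to flag cytotoxic compounds; mouse MIN-6 beta cells carrying an insulin promoter eGFP reporter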
[2] = insulin promoter down-regulators in MIN6 cells, imaging, high-content screening, mouse beta cells (AID 1628); type: functional
[3] = cytotoxicity toward NIH3T3 fibroblasts, dose response, counter-screen, cell-based, ATP luminescence, mouse fibroblasts (AID 2010); type: functional;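 note: cells exposed to compound for about 90 hours before reading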
[4] = HEp-2 cell cytotoxicity, dose response, cytotoxicity control for RSV inhibitor project, HTS (AID 2410); type: functional; conditions: human respiratory syncytial virus
[5] = inhibitors of intracellular T. cruzi replication, confirmation, NIH3T3 host cells, beta-gal luminescence (AID 2044); type: functional, cell-based;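 note: intracellular parasites grown in NIH/3T3 mouse fibroblasts as host cells; luminescent beta-galactosidase reporter signal from transgenic T. cruzi replicating inside host cells; inhibitors lower the luminescence signal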

| Compound | IC50 [1] | IC50 [2] | EC50 [3] | CC50 [4] | EC50 [5] |
| --- | --- | --- | --- | --- | --- |
| Cc1ccc(-c2noc(CCC(=O)NCCCN3CCN(c4ccc(F)cc4)CC3)n2)cc1 | 3.21 µM (active) | 3.28 µM (active) | – | – | – |
| N=c1ccn(Cc2cccc(Cl)c2)cc1 | 3.41 µM (active) | 3.15 µM (active) | – | – | – |
| COc1cc(-c2nn3c(-c4ccccc4)nnc3s2)cc(OC)c1OC | > 16 µM (inactive) | 3.22 µM (active) | – | – | – |
| O=C(NCc1cn(-c2ccccc2)nc1-c1ccc(F)cc1)c1cccc([N+](=O)[O-])c1 | 4.31 µM (active) | 2.91 µM (active) | > 60 µM (not active) | 28.1 µM (active) | 0.805 µM (active) |
